One block for each compound: values may come before it.
Tests used:
hPSC-derived DE = assay: Foregut specification: treatment of hPSC-derived DE (day 3), downstream gene expression by RT-qPCR; format: cell-based, human; conditions: for downstream LB gene expression (AFP, CEBPA, TBX3, HNF1B) / expression of MHG markers CDX2 and EVX1: 24 h during foregut specification; for HNF6, PROX1 and HEX expression: Wnt inhibition during foregut specification
Description: RT-quantitative PCR was used to quantify gene expression. […] During liver development, populations of definitive endoderm cells are first patterned along the anterior-posterior axis to form either the foregut or mid/hindgut. In the present invention the effects of signaling inhibition on the developmental competence of the foregut cells to give rise to the liver bud (LB) cells was examined. Competence is defined as the capacity of one stem cell or progenitor cell to differentiate into its daughter cell type. For example, the posterior foregut is competent when it could give rise to its daughter cell types such as the pancreatic endoderm and LB cells.

hepatic progenitors = assay: Treatment of hepatic progenitors (days 13-18), hepatocyte-like cell, periportal versus perivenous gene expression; format: cell-based, human
PFG cells = assay: Liver bud (LB) specification from posterior foregut, days 4-6, gene expression; format: cell-based, human
Description: (§1) mTeSR1-grown hPSCs were cultured and differentiated as follows: • a) hPSCs cells were seeded at 1:12 as small clumps using Accutase (Millipore, Cat#SCR005) and Geltrex (Lifetech, Cat#A1413302). • b) Anterior Primitive Streak (day 1) was specified using Activin A (100 ng/ml), CHIR99021 (3 μM), PI-103 (50 nM) and Fgf2 (10 ng/ml) in serumless CDM2 basal medium for 24 hr. • c) Activin A (100 ng/ml) and DM3189 (250 nM) and PI-103 (50 nM) were added in the same basal medium for 24 hr to induce Definitive Endoderm (DE) (day 2). • d) DE was then patterned into PFG by using A83-01 (1 μM), RA (2 μM), BMP4 (30 ng/ml) and Fgf2 (10 ng/ml) in CDM KOSR basal media for another 24 hrs. • e) PFG was further differentiated to LB progenitors using Activin A (100 ng/ml), 8-bromo-CAMP (1 mM) and BMP4 (10 ng/ml) in CDM KOSR basal media for 3 days (day 4 to 6). • f) LB progenitors were treated with BMP4 (10 ng/ml), Oncostatin M (10 ng/ml), Dexamethasone ([…]), DAPT, C59 (1 μM) or RO4919097 (2 μM), forskolin ([…]), human recombinant insulin (10 μg/ml), ascorbic acid-2 phosphate (200 μg/ml), L-gluthathione ([…]) and amino acid concentrate and in IMDM/F12 media for the next 6 days (day 7 to 12) to induce hepatic progenitors. • g) Hepatic progenitors were treated with Dexamethasone (10 μM), RO4929097 (2 μM) or DAPT (10 μM), Forskolin (10 μM), human recombinant insulin (10 μg/ml), ascorbic acid-2 phosphate (200 μg/ml) in IMDM/F12 media for 6 days (day 13 to 18) to generate hepatocyte-like cells. Intra-Splenic Transplantation into FRG^−/− Mice
(§2) RNA was extracted using Zymo RNA extraction kit. RT-quantitative PCR was used to quantify gene expression. Primer sequences were designed by NCBI Primer Tool and primer specificity and linearity was tested before usage for gene expression analyses.
The signaling pathways, including Retinoic, Nodal/Activin, Bmp, PKA, FGF and Wnt signaling, were explored to determine if they could directly regulate LB specification.

hPSC-derived LB cells = assay: Hepatic progenitor specification from hPSC-derived LB cells (days 7-12), liver gene expression
Description: as §1, §2
To identify the signals that regulate the progression of the LB progenitors from an ALB- to a more differentiated ALB+ state, multiple signaling pathways were systematically screened for their effects on ALB expression (including FGF, WNT, Notch, HGF, cAMP/PKA, TGFβ, and BMP).

expression of ALB, CYP3A7 (hepatic progenitors): promotes
Compound: Cc1cc(-c2ccc(CC(=O)Nc3ccc(-c4cccnc4)cc3)cc2)ccn1 [C59, 2-(4-(2-methylpyridin-4-yl)phenyl)-N-(4-(pyridin-3-yl)phenyl)acetamide]
downstream LB gene expression (AFP, CEBPA, TBX3, HNF1B) (hPSC-derived DE): severely reduces
expression of MHG markers CDX2 and EVX1 (hPSC-derived DE): reduces
HNF6, PROX1 and HEX expression (hPSC-derived DE): upregulated

Compound: COC(=O)[C@@]1(OC)C[C@H]2O[C@]1(C)n1c3ccccc3c3c4c(c5c6ccccc6n2c5c31)C(=O)N(C)C4 [KT5823, (9S,10R,12R)-2,3,9,10,11,12-Hexahydro-10-methoxy-2,9-dimethyl-1-oxo-9,12-epoxy-1H-diindolo[1,2,3-fg:3′,2′,1′-kl]pyrrolo[3,4-i][1,6]benzodiazocine-10-carboxylic acid, methyl ester]
expression of FAH, PAH, HGD, TAT, CPS1, ARG1, FBA, FBB and FBG (hepatic progenitors; PKG antagonists): upregulate

Compound: Activin: activator of TGFβ signaling
later expression of ALB in subsequent differentiation (PFG cells; 10 ng/ml during LB specification): increases
HNF4A, HNF1A, and TBX3 levels (PFG cells; day 4 to 6): increases
LB expression (AFP and CEBPA) (PFG cells; day 4 to 6): reduces
LB marker expression (PFG cells; increasing the dose): seems to reduce
expression of ALB on day 13 (PFG cells; treatment during LB specification (days 4-6)): enhances
periportal genes (hepatic progenitors): downregulation

Compound: DKK1: Dickkopf 1, inhibitor of Wnt signaling
downstream LB gene expression (AFP, CEBPA, TBX3, HNF1B) (hPSC-derived DE): severely reduces
expression of MHG markers CDX2 and EVX1 (hPSC-derived DE): reduces
HNF6, PROX1 and HEX expression (hPSC-derived DE): upregulated
expression of ALB, CYP3A7 (hepatic progenitors): promotes

Compound: human recombinant insulin: activator of insulin signaling
expression of ALB, CPS1 and CYP3A4 (hPSC-derived LB cells): strongly enhanced
expression of PAH, HGD, HPD, TAT, MAI, and FAH (hPSC-derived LB cells; days 7 to 12): significantly increases
tyrosine metabolic genes and xenobiotic metabolic genes such as CYP3A4 (hepatic progenitors): continues to enhance
